{"source": "patent US20060276436A1", "about": "“Farnesyl dibenzodiazepinone formulation” (Ecopia BioSciences, Inc., priority 2005, published 2006)", "key": {"[1]": {"assay": "In vivo toxicity of Compound 1 in monkeys"}, "[2]": {"tested_on": "human breast tumor (MDA-MB-231) xenografts", "assay": "Human MDA-MB-231 breast cancer mice model", "type": "in vivo, HRLN female nude mice", "settings": "Intravenous treatment, 100 mg/kg 5/2/5/2/5", "method": "The antitumor activity of Compound 1 was further tested in a human MD-MB-231 breast cancer model in mice, using formulation D11 at 6 and 10 mg/mL concentrations (see Table 8). HRLN female nude mice (8 weeks of age) were treated with 5×10^6 MDA-MB-231 tumor cells (sc) in the right flank. Animals were randomized (ten per group) when tumors reach an average size of 80-120 mg and treatment began according to the table below.\nTumor measurements were taken twice weekly using calipers and were converted to tumor mass (in milligrams) using the formula: with^2 (mm)×length (mm)×0.52. Body weights were also recorded twice weekly. Statistical analysis was done using the unpaired two-tailed Student's t test."}, "[3]": {"tested_on": "human glioma (U-87MG) tumor xenograft", "assay": "Human U-87 MG glioblastoma mice model, antitumor efficacy", "type": "in vivo", "settings": "SC 30 mg/kg q1d×5 over 2 weeks", "method": "Tumor growth was followed every other day by measuring tumor length (L) and width (W) using a calliper. Measurements were converted to tumor volumes (TV; mm^3) using the standard formula, TV=(L×W^2)/2. Tumor volume at day n was expressed as relative tumor volume (RTV) according to the following formula RTV=TVn/TV0, where TVn is the tumor volume at day n and TV0 is the tumor volume at day 0. The percentage of tumor growth inhibition (% TGI) was determined by 1−(mean RTV of treated group/mean RTV of control group)×100. […] Statistical analysis was calculated by the two-tailed unpaired t test using the Prism software. […]\nThe human U-87 MG (ATCC® no. HTB-14™) glioblastoma antitumor efficacy study was performed at INSERM U318 (Grenoble, France). […] On each dosing day, Compound 1 stock solutions (24 and 40 mg/mL in bulk Formulation B11) were diluted with sterile 5% dextrose in water (D5W) to prepare a dosing solution of 6 mg/mL of Compound 1 in ready-to-use Formulation D11 (5% ethanol, 5% PEG400, 15% polysorbate 80, and 75% D5W).\nFor the human glioblastoma antitumor efficacy study, female athymic (nu/nu) nude mice (6-7 weeks of age) were inoculated SC with 5×10^6 U-87MG cells (day 0). […] Tumor growth inhibition (TGI) was calculated on day 34 post tumor cell inoculation, at which time some animals from the vehicle control group had to be sacrificed due to tumor burden."}, "[4]": {"assay": "Population pharmacokinetic analysis (NONMEM), rat", "type": "in vivo", "settings": "plasma, Rat (IV + CIV); for Vd: read-out: Vss; for half-life: rat, iv", "description": "Plasma concentrations of Compound 1 were obtained from mice, rats, and monkeys following intravenous injection or continuous infusion. Compound 1 pharmacokinetic parameters in mice, rats, and monkeys were estimated using population pharmacokinetic analysis, a function of the software program NONMEM™ (version 5). Typical population pharmacokinetic parameters for Compound 1 in humans were extrapolated from allometric equations that were derived from pharmacokinetic parameters estimated in the three animal species. […] A two-compartment model with a first-order elimination from the central compartment adequately described Compound 1 plasma concentration-time profiles following intravenous bolus injection (30 mg/kg) in mice and rats, 7-day continuous infusion in rats (50 to 170 mg/kg/day), and 14-day continuous infusion in monkeys (5 to 30 mg/kg/day)."}, "[5]": {"assay": "Pharmacokinetic study using Formulation D11 (IV, IP, SC) and Formulation C (PO)", "type": "in vivo, Crl: CD1 mice", "method": "Formulation D11, at a final concentration of 6 mg/ml of Compound 1 was used for IV, IP and SC bolus administration. […] Prior to dosing, animals (female Crl: CD1 mice; 6 weeks of age, 22-24 g) were weighed, randomly selected and assigned to the different treatment groups. Compound 1 was administered by the intravenous (IV), subcutaneous (SC), intraperitoneal (IP), or oral (PO) route to the assigned animals. The dosing volume of Compound 1 was 5 mL per kg body weight. Animals were anesthetized prior to bleeding with 5% isoflurane. Blood was collected into microtainer tubes containing the anticoagulant K2EDTA by cardiac puncture from each of 4 animals per bleeding timepoint (2 min, 5 min, 15 min, 30 min, 1 h, 2 h, 4 h and 8 h). Following collection, the samples were centrifuged and the plasma obtained from each sample was recovered and stored frozen (at approximately −80° C.) pending analysis. […] Samples were analysed by LC/MS/MS. Standard curve ranged from 25 to 2000 ng/mL with limit of quantitation (LOQ)≦25 ng/mL and limit of detection (LOD) of 10 ng/mL.\nPlasma values of Compound 1 falling below the limit of quantitation (LOQ) were set to zero. Mean concentration values and standard deviation (SD) were calculated at each timepoints of the pharmacokinetic study (n=4 animals/timepoint). The following pharmacokinetic parameters were calculated: area under the plasma concentration versus time curve from time zero to the last measurable concentration time point (AUC0-t), area under the plasma concentration versus time curve extrapolated to infinity (AUCinf), maximum observed plasma concentration (Cmax), time of maximum plasma concentration (tmax), apparent first-order terminal elimination rate constant (kel), apparent first-order terminal elimination half-life will be calculated as 0.693/kel (t1/2). The systemic clearance (CL) of Compound 1 after intravenous administration was calculated using Dose/AUCinf. Pharmacokinetic parameters were calculated using Kinetica™ 4.1.1 (Innaphase Corporation, Philadelphia, Pa.)."}, "[6]": {"assay": "In vivo toxicity of Compound 1 in rats", "settings": "rat, single bolus intravenous administration, healthy rats", "description": "The toxicity was due to the vehicle and was attributed to smaller size of infusion vessels, and concurrent catheter tract infection."}}, "note": "Like-named read-outs stand apart in the source and are kept apart here."}
{"smiles": "CC(C)=CCC/C(C)=C/CC/C(C)=C/CN1C(=O)c2cccc(O)c2Nc2c(O)cc(O)cc21", "note": "[Compound 1, 10-farnesyl-4,6,8-trihydroxy-dibenzodiazepin-11-one]", "values": [{"measurement": "acute toxicity, tolerability", "setting": "[1]; 24-hour CIV, doses of 35 mg/kg and 70 mg/kg, infusion rate 2 mL/kg/hour", "value": "well tolerated"}, {"measurement": "MTD", "setting": "[1]; monkey, in vivo, single bolus intravenous administration", "value": "~35", "unit": "mg/kg"}, {"measurement": "antitumor activity (in words)", "setting": "[2]", "value": "did not result in activity"}, {"measurement": "tolerability of dose regimen", "setting": "[3]", "value": "well tolerated"}, {"measurement": "clearance", "setting": "[4]; WT 0.225 Kg", "value": 4.08, "unit": "mL/min"}, {"measurement": "Vd", "setting": "[4]; WT 0.225 Kg", "value": 0.081, "unit": "L"}, {"measurement": "clearance", "setting": "[4]; population PK", "value": 18.2, "unit": "mL/min/kg"}, {"measurement": "Vd", "setting": "[4]; population PK", "value": 0.362, "unit": "L/kg"}, {"measurement": "half-life", "setting": "[4]; population PK, read-out: t1/2, α (converted)", "value": 0.075, "unit": "h"}, {"measurement": "half-life", "setting": "[4]; population PK, read-out: t1/2, β (converted)", "value": 2.5, "unit": "h"}, {"measurement": "tissue distribution (in words)", "setting": "[5]; IV and IP dosing 30 mg/kg, 30 min", "value": "well distributed"}, {"measurement": "tissue levels (in words)", "setting": "[5]; SC dosing 30 mg/kg, 30 min, versus IP", "value": "significantly lower"}, {"measurement": "time plasma concentration maintained at therapeutically relevant levels", "setting": "[5]; intraperitoneal and subcutaneous administrations, 30 mg/kg, Formulation D11", "value": "over 8 hours"}, {"measurement": "MTD", "setting": "[6]", "value": 85, "unit": "mg/kg"}]}
